According to BindingDB's records for patent US9187487 (Principia Biopharma, 2015):

Biological target: T1, Tyrosine-protein kinase JAK3 [781-1124] (Homo sapiens, UniProt P52333)
T1 construct: 781-1124
Experiment: Phosphorylation Assay
Conditions: pH 7.5
Procedure: Phosphorylation of the appropriate peptide substrate (fluorescently labeled Srctide) by recombinant JAK3 (catalytic domain, aa 781-1124) was measured in the presence and absence of different concentrations of test compounds. Test compound, enzyme, fluorescently labeled substrate, and cofactors (ATP and Mg2+) were combined in a well of a microtiter plate and incubated for 2 hours at 25° C. The composition of the reaction buffer was 100 mM HEPES pH 7.5, 5 mM MgCl2, 0.01% Triton-X 100, 0.1% Bovine Serum Albumin, and 1% DMSO. Enzyme concentration in the final reaction mixture was 0.5 nM while peptide substrate was at 1 uM. ATP was used at 1xKm concentration corresponding to 2 uM. Serial dilutions (3-fold steps) of compounds were prepared in DMSO. At the end of the incubation, the reaction was stopped by the addition of 20 mM EDTA. Substrate and product (i.e. phosphorylated substrate) were separated electrophoretically and both were quantified by fluorescence intensity.

T1 sequence (P52333 781-1124): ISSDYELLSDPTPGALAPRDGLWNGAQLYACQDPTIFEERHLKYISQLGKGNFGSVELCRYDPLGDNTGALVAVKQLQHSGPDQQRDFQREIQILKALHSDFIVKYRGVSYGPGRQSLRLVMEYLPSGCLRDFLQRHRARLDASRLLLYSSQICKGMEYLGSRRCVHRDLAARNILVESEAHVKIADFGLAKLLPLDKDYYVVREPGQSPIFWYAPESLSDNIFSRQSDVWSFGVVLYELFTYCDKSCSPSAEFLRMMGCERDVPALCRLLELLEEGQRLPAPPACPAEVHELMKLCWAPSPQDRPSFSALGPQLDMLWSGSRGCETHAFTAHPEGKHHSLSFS

Row | IC50 [µM] | Structure (SMILES)
1 | 0.19 | CC(C)C(=O)c1c[nH]c2ncc(-c3cccc(C=C(C#N)C(=O)N(C)C)c3)nc12 [US9187487, 37]
2 | 0.004 | CC(C)(C)C(=O)c1c[nH]c2ncc(Nc3ccc(C=C4SC(=O)NC4=O)cc3)nc12 [US9187487, 65]
